The record followed here is patent publication US7468391B2, “Methods for treating retinoid responsive disorders using selective inhibitors of CYP26A and CYP26B” (Allergan, Inc., priority 2003, dated 2008).

As usually defined, the Kd is the free concentration of one partner at which half of the binding sites on the other are occupied at equilibrium, for simple one-to-one binding. A lower Kd goes with a tighter complex.

SMILES strings stand for the structures.

Assay [1] concerns hamster flank organ sebaceous gland. The assay can be described thus: Hamster flank organ sebaceous gland differentiation (model for acne). The assay is classed as in vivo, male golden syrian hamsters. To be noted: compared with 13-cis retinoic acid (30 mg/kg), FIG. 3. The protocol:
Differentiation of hamster flank organ sebaceous gland is a model system for development of acne. To determine the effectiveness of selective CYP26B inhibitors for treating acne, such inhibitors were tested in this model system. To confirm that this model system can predict the effectiveness of a compound in reducing acne, 13-cis retinoic acid (acutane) was used as a positive control.
For the hamster model system, male golden syrian hamsters were fed LabDiet#5002 rodent diet and housed individually on a 14/10 hr light/dark cycle. For treatment, the animals were randomized according to body weight and they were also weighed at each treatment so that the drug doses could be adjusted accordingly. The animals were treated daily by oral gavage, 6 days/week for 4 weeks. At the end of treatments, the animals were sacrificed by carbon dioxide inhalation. The flank organs were then excised and spread on a small piece of index card which was placed in a histology cassette for fixation in 10% buffered formaldehyde. The specimen was divided into 5 equally spaced portions to make paraffin blocks and one 5-micrometer H&E sections was prepared from each block. The two sections that contained the most sebaceous glands were used to determine the average acini area of the flank organ. A video camera attached to a standard microscope with the 4× objective was used to capture the images of the sebaceous glands. Computer programs Videoshop and NIH Image 1.63 were used to quantify the acini areas. All the recognizable sebaceous glands in the two sections were analyzed and the means were derived for comparison among various treatments. In all studies, blood samples were also collected for determining the levels of serum triglyceride using a triglyceride GPO Trinder kit from Sigma Chemicals (St. Louis, Mo.).

For a further assay, the target named is T1, RAR γ (Homo sapiens, UniProt P13631).
T1 sequence (P13631 1-454): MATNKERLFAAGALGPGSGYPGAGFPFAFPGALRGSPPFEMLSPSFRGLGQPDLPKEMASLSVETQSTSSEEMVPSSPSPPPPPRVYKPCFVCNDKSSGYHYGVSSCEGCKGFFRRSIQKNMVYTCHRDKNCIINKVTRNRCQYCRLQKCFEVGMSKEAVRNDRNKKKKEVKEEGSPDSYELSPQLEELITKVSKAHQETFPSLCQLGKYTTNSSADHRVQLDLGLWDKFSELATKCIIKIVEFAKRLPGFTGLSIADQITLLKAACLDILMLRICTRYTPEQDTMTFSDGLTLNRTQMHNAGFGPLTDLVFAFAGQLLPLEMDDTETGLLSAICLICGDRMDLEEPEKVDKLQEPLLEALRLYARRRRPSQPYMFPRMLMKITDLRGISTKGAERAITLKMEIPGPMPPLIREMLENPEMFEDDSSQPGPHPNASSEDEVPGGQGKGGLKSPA
The experiment in a line: RAR γ Kd. It counts as binding. The following applies: Table 3.

The target of another assay is T2, RAR β (Homo sapiens, UniProt P10826).
T2 sequence (P10826 1-455): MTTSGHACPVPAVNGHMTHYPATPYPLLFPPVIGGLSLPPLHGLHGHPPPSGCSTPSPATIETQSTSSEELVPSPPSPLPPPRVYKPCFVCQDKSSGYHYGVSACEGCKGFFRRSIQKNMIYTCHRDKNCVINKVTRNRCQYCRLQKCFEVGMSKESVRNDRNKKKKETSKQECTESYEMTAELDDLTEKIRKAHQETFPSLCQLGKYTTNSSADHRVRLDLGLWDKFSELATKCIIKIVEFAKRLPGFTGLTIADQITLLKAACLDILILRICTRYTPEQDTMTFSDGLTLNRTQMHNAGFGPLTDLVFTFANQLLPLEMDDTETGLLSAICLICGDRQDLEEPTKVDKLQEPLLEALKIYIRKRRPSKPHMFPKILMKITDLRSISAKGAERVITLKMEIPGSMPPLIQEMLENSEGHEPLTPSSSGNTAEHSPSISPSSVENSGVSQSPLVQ
The experiment in a line: RAR β Kd. To be noted: Table 3. It counts as binding.

Turning to `CN(C1CC1)C1CCC(C)(C)c2cc(C#Cc3ccc(C(C)(C)C(=O)O)cc3)ccc21` (stereo not drawn) [AGN 198790], the “hamster flank sebaceous gland differentiation” value in assay [1] (50 mg/kg) was “reduced hamster flank sebaceous gland differentiation at least as effectively as 13-cis retinoic acid”. In addition, the Kd at RAR γ and at RAR β was greater than 10 µM each time.

As for `CN(Cc1cccc(C#Cc2ccc(/C=C/C(=O)O)cc2)c1)C1CC1` [AGN 199713], the “hamster flank sebaceous gland differentiation” value in assay [1] (12.5 mg/kg) is reported as “reduced hamster flank sebaceous gland differentiation at least as effectively as 13-cis retinoic acid”. In addition, the dissociation constant (Kd) on RAR γ and on RAR β was greater than 10 µM each time.
